Patent US20110277050A1, “SYSTEM AND METHODS TO CONTROL TRANSGENE EXPRESSION” (The Board of Trustees of the Leland Stanford Junior …, priority 2010, published 2011)

How the values were obtained:
[1] = system: QUAS-luc2 reporter (QF activation, QS repression) in Drosophila S2 cells; experiment: Dual luciferase reporter assay in transiently transfected Drosophila S2 cells, QUAS-luc2 reporter (QF/QS); assay type: cell-based
Protocol: (§1) S2 Cell Transfection: S2 cells (gift of M. Simon, Stanford University) were maintained in Shields and Sang M3 insect medium (Sigma, Catalog #S8398), prepared according to the manufacturer's instructions and supplemented with 10% heat inactivated fetal bovine serum (FBS) and antibiotics (from 100× penicillin/streptomycin stock, Invitrogen, Catalog #15140). FBS was heat inactivated at 56° C. for 30 minutes. The cells were grown in an air incubator at 25° C. For transfection, 0.4 ml of complete M3 medium containing 5*10^5 Drosophila S2 cells were plated into individual wells of 24-well plates several hours before the transfection. The DNA for transfection was mini-prepped (QIAprep Miniprep kit, Qiagen, Catalog #27106), DNA concentrations were determined using the Nanoprop 1000 spectrophotometer (Thermo Scientific), diluted in 10 mM TRIS-HCl pH 7.5, 0.1 mM EDTA to 25 ng/μl, and filtered through a 13-mm 0.2 μm filter (Nalgene, Catalog #180-1320). For individual transfections, we used 0.2 μg of total DNA (total of 8 μl from 25 ng/μl stocks) including one or more of the following: 25 ng of reporter, 12.5 ng of a transcription factor plasmid and the amount or repressor plasmid that was adjusted according to the molarity of the corresponding transcription factor plasmid to get either equimolar, 3-fold or 5-fold higher molar concentration, as indicated. Each sample also contained 2.5 ng of pPAC5C-hRluc, which was used for normalization of the firefly luciferase signal for each sample (see below) and pBluescript to supplement the total DNA amount to 0.2 μg. The cells were transfected using Effectene (Qiagen, Catalog #301425) according to the manufacturer's protocol (for each sample we used: 59 μl EC buffer; 1.6 μl enhancer solution; 4 μl Effectene and 350 μl M3 medium). 12 h after the addition of transfection mixes to cells, quinic acid was added where indicated from 50× stocks. The starting quinic acid stock solution (250 mg/ml) was prepared from D-(−)-quinic acid (Sigma-Aldrich, 98%, Catalog #138622) in sterile Milli-Q water and neutralized with NaOH to pH˜7. All other 50× stocks were made from this stock by dilution in water. Cells were lysed 24 h after the addition of quinic acid (36 h since the start of transfection), by spinning the 24-well plates for 5′ in a table top centrifuge at ˜1000 g, removing the supernatant by aspiration and incubation with of 200 μl passive lysis buffer (from the Dual Luciferase Reporter Assay System by Promega, Catalog #E1910) with shaking at room temperature for ˜30 minutes. The lysates were transferred into 1.5 ml tubes and frozen at −80° C. The lysates were analyzed using the Dual Luciferase Reporter Assay System, according to the manufacturer's instructions, and the single tube Turner Biosystems luminometer, model 20/20n. The luminescence light signal for both firefly and Renilla luciferases was collected for 10 s. All samples that were transfected with reporters had at least 100-fold higher signal than the background (lysates from pBluescript-only transfected cells). For each sample “X”, the relative luciferase activity (RLA) was calculated according to the following formula: […] where n=number of QUAS-only samples; F=Firefly luciferase luminescence signal; R=Renilla luciferase luminescence signal. Each condition was executed at least in triplicate, the average and SEM were determined for each condition, and statistical significance was evaluated using Student's t-test. […]

[2] = system: UAS-luc2 reporter (GAL4 activation, GAL80 repression) in Drosophila S2 cells; experiment: Dual luciferase reporter assay in transiently transfected Drosophila S2 cells, UAS-luc2 reporter (GAL4/GAL80); assay type: cell-based
Protocol: as §1

[3] = system: QUAS-luc2 reporter (QF activation, QS repression) in human HeLa cells; experiment: Dual luciferase reporter assay in transiently transfected human HeLa cells, QUAS-luc2 reporter (QF/QS); assay type: cell-based
Protocol: (§2) HeLa Cell Transfection: HeLa cells (gift of K. Wehner, Stanford University) were maintained in Dulbecco's Modified Eagle Medium (DMEM, Invitrogen, Catalog #10566), supplemented with 10% FBS and antibiotics (from 100× penicillin/streptomycin stock, Invitrogen, Catalog #15140) in a 37° C. air incubator with 5% CO2. At least 5 hours before transfection, cells were detached and dissociated from the plate using Triple-express (Invitrogen, Catalog #12605) and plated into 24-well plates at 7*10^4 cells in 0.5 ml medium with FBS, but without antibiotics. Cells were transiently transfected using Lipofectamine 2000 (Invitrogen, Catalog #11668-019), according to the manufacturer's instructions. Plasmid DNA for transfection was prepared as described in the S2 cell transfection protocol above. For each sample we used 0.25 μg DNA (total of 10 μl from 25 ng/μl stocks) including one or more of the following: 50 ng of reporter, 25 ng of a transcription factor plasmid and the amount or repressor plasmid that was adjusted according to the molarity of the corresponding transcription factor plasmid to get either equimolar, 3-fold or 5-fold higher molar concentration, as indicated.
Each sample also contained 5 ng of pGL4.75 (hRluc/CMV from Promega), which was used for normalization of the firefly luciferase signal for each sample (see below), and pBluescript to supplement the total DNA amount to 0.25 μg. The DNA was mixed in 50 μl of Opti-MEM (Invitrogen, Catalog #51985) and combined with another 50 μl of Opti-MEM containing 1 μl of Lipofectamine. The medium containing the transfection mix was replaced with DMEM containing FBS and antibiotics 22 h after transfection. Where needed, the medium contained quinic acid supplemented from 50× stocks that were made as described in the S2 cell transfection protocol above. 24 h after the medium was changed, the cells were lysed in 24-well plates and processed as described above in the S2 cell transfection protocol. All samples that were transfected with reporters had at least 100-fold higher signal than the background (lysates from pBluescript-only transfected cells). […] Plasmids used for transfection in HeLa cells were: pUAS-luc2, pQUAS-luc2, pCMV-QF, pCMV-QS, pCMV-GAL4, pCMV-GAL80, pGL4.75 (Promega), pBluescript. Higher QS:QF or GAL80:GAL4 molar ratios are required for effective suppression in HeLa cells compared with Drosophila S2 cells. This phenomenon could be due to codon choice and/or differential activity or stability of activators and repressors at different temperatures—25° C. for S2 and 37° C. for HeLa.

[4] = system: QS inhibition of ET40-QF driven QUAS-mtdT-HA expression; experiment: Quinic acid feeding of flies: derepression of QS (fluorescence imaging of adult flies); assay type: in vivo, Drosophila
Protocol: (§3) Quinic acid feeding of flies: Quinic acid containing medium was made as follows: a few holes were made in standard fly medium with wooden sticks, and 0.3 ml of freshly made D-(−)-quinic acid (Sigma-Aldrich, 98%, Catalog #138622) solution dissolved in water was added per 10 ml of medium. Vials were allowed to air-dry overnight. […] For assaying the effect of quinic acid on developing animals, approximately 10 males and 15 females per vial of the genotype ET40-QF, QUAS-mtdT-3xHA (II); 82B^FRT tubP-QS (III) were allowed to lay eggs for 6 hours on quinic acid containing medium. Animals fed upon and developed in the quinic acid containing food. Adult flies were imaged within 3 days of eclosion. For assaying the effect of quinic acid feeding on adult flies, approximately 30 adult flies per vial of genotype ET40-QF, QUAS-mtdT-3xHA (II); 82B^FRT tubP-QS (III) were allowed to feed on quinic acid medium for the listed times in FIG. 3D. For feedings over multiple days, flies were transferred to fresh quinic acid containing food every two days.
Imaging of adult flies: Adult flies were imaged on a Qlmaging Retiga 2000R Cooled Monochrome Digital camera using a Discovery V8 Pentafluor System (Zeiss) with a DS RED filter cube.

[5] = system: Flies; experiment: Flies kept on food containing high doses of quinic acid; assay type: in vivo, Drosophila; settings: 9 generations on food containing high doses of quinic acid
Protocol: as §3

[6] = Stability of quinic acid in fly food, judged by derepression activity; assay type: physicochemical; settings: food stored for at least a week at 18° C.
Protocol: as §3

[7] = system: UAS-luc2 reporter (GAL4 activation) in human HeLa cells; experiment: Dual luciferase reporter assay in transiently transfected human HeLa cells, UAS-luc2 reporter (GAL4); assay type: cell-based
Protocol: as §2
Each sample also contained 5 ng of pGL4.75 (hRluc/CMV from Promega), which was used for normalization of the firefly luciferase signal for each sample (see below), and pBluescript to supplement the total DNA amount to 0.25 μg. […]

[8] = adult flies transferred to quinic acid-containing food

O=C(O)[C@]1(O)C[C@@H](O)[C@@H](O)[C@H](O)C1 [quinic acid, D-(−)-quinic acid]
suppression of QS to restore QF-based transcription [1]: significantly suppressed QS | effect on QF activation of QUAS ([1]; high concentration (5 mg/ml)): no effect | re-activation of QUAS compared to the control sample with QUAS, QF and 5xQS ([1]; highest QA concentration tested (QA3=5 mg/ml), 24 h): ~23 fold | derepression of GAL4 (effect on GAL80 repression of GAL4) ([2]; high concentration (5 mg/ml)): ~1.5 fold | effect on Gal4 activation of UAS ([2]; high concentration (5 mg/ml)): no effect | effect on QF-dependent transcription of QUAS [3]: no effect | suppression of QS in mammalian cells ([3]; also observed in COS cells): does not suppress QS | further suppression of QUAS activation in the presence of QF and 5xQS ([3]; two higher QA concentrations tested (250 μg/ml, 5 mg/ml)): ~13 fold | derepression in flies fed for up to 10 days compared with 5 days ([4]; adult flies on quinic acid food): no more derepression | time after which reversion of suppression could be seen [4, 8]: 6 h | time of marked reversion of suppression [4, 8]: 24 h | time of saturation of reversion of suppression [4, 8]: ≤ 5 days | reversion of QS inhibition of ET40-QF driven QUAS-mtdT-HA expression with increasing doses ([4]; quinic acid added to fly food on which flies developed): increasingly reverted | abnormalities in flies [5]: no noticeable abnormalities | stability in food [6]: appears to be stable

B1: QF: transcriptional activator from the Neurospora crassa qa gene cluster, binds 16-base pair sequence (QUAS) (protein, UniProt P11638 1-816, looked up)
Transcription factor qa-1f: MPPKRKTLNAAAEANAHADGHADGNADGHVANTAASSNNARFADLTNIDTPGLGPTTTTLLVEPARSKRQRVSRACDQCRAAREKCDGIQPACFPCVSQGRSCTYQASPKKRGVQTGYIRTLELALAWMFENVARSEDALHNLLVRDAGQGSALLVGKDSPAAERLHARWATSRVNKSITRLLSGQAAQDPSEDGQSPSEDINVQDAGAKTSDFPHAPHLTFSAPKSSTAETRTLPGPVRPPISANTLENNLQPDGTGIGKLPPNHWRLLDIYFSYTHSWLPILEKKDMYQALYQYSEQGSLLPSANVESGVHAELWSALALASFQAAATAASSATGPASAAHGHDNAINPSPADISDTARKLIPLESGPFQVQHCRALLLLCLVSLGRDDWESAWLLVGFAVRVLLVVRTQLPPDDDRPRPRMRALLVACFIVDTIVSMRHNVPAHLKPDDIADLPLPEDGQDQWEPWTPCEGLGGEHTMLQMLRNPAYPLSTFNHLYGVTKLVALELLPRIRTSSQNAPLEFRSRLQQVIGHNSPFSVFVLSQDTASAFVPTAYLTRTVYLWAAAFSEPLNEHYSHLLIETLDQYQKRFGTYAIPPLIPSLLDSLLALKKQSHSSERHRRHLEELFPAYSSIWPRGGRHSNTGLQPIRQLELPPTATATASIMPHVMEQPLSTSINPVNDRFNGIPNPTPYNSDAALDAITQTNDYGSVNTHGILSTYPPPATHLNEASVALAPGGAPPRPPPPYVDSTTNHPPYHSNLVPMANFGYSTVDYDAMVDDLASIEYTDAVDVDPQFMTNLGFVPGCNFSDISTYEQ
enhancement of luc2 expression from QUAS-luc2 compared with QUAS-luc2 alone [1]: ~3.300 fold | QF activation of UAS, fold less than that of QUAS ([2]; cross-activation): ~1,500 fold | induction of expression from QUAS [3]: ~24.000 fold

B2: GAL4: budding yeast transcription factor of the GAL4/UAS binary expression system (protein, UniProt P04386 1-881, looked up)
Regulatory protein GAL4: MKLLSSIEQACDICRLKKLKCSKEKPKCAKCLKNNWECRYSPKTKRSPLTRAHLTEVESRLERLEQLFLLIFPREDLDMILKMDSLQDIKALLTGLFVQDNVNKDAVTDRLASVETDMPLTLRQHRISATSSSEESSNKGQRQLTVSIDSAAHHDNSTIPLDFMPRDALHGFDWSEEDDMSDGLPFLKTDPNNNGFFGDGSLLCILRSIGFKPENYTNSNVNRLPTMITDRYTLASRSTTSRLLQSYLNNFHPYCPIVHSPTLMMLYNNQIEIASKDQWQILFNCILAIGAWCIEGESTDIDVFYYQNAKSHLTSKVFESGSIILVTALHLLSRYTQWRQKTNTSYNFHSFSIRMAISLGLNRDLPSSFSDSSILEQRRRIWWSVYSWEIQLSLLYGRSIQLSQNTISFPSSVDDVQRTTTGPTIYHGIIETARLLQVFTKIYELDKTVTAEKSPICAKKCLMICNEIEEVSRQAPKFLQMDISTTALTNLLKEHPWLSFTRFELKWKQLSLIIYVLRDFFTNFTQKKSQLEQDQNDHQSYEVKRCSIMLSDAAQRTVMSVSSYMDNHNVTPYFAWNCSYYLFNAVLVPIKTLLSNSKSNAENNETAQLLQQINTVLMLLKKLATFKIQTCEKYIQVLEEVCAPFLLSQCAIPLPHISYNNSNGSAIKNIVGSATIAQYPTLPEENVNNISVKYVSPGSVGPSPVPLKSGASFSDLVKLLSNRPPSRNSPVTIPRSTPSHRSVTPFLGQQQQLQSLVPLTPSALFGGANFNQSGNIADSSLSFTFTNSSNGPNLITTQTNSQALSQPIASSNVHDNFMNNEITASKIDDGNNSKPLSPGWTDQTAYNAFGITTGMFNTTTMDDVYNYLFDDEDTPPNPKKE
GAL4 activation of QUAS, fold less than that of UAS ([1]; cross-activation): ~200 fold | higher inducibility than QF/QUAS [2]: ~1.6 fold | induction of luc2 expression from UAS-luc2 [2]: ~5,300 fold | induction of UAS [7]: ~1000 fold
